# From patent publication US20100292231A1, “Indazole Compounds for Treating Inflammatory Disorders, Demyelinating Disorders and Cancers” (priority 2007, published 2010)
# Experiments:
# Assay in all cases: SelectScreen kinase specificity survey
# Assay type in all cases: biochemical
# Conditions in all cases: estimated, abridged dose response curve, read-out: Kinase inhibitory activity EC50
# [1] = target: T1, RET (Homo sapiens, UniProt P07949)
# T1 construct: purchased Invitrogen (SelectScreen)
# In short: (§1)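 Dose-response: 5 graded inhibitor additions per kinase, with ATP at 100 micromolar and detection by an optical reporter on a kinase-unique substrate. The sigmoid saturation fit has four parameters (Hill); EC50 is an estimate.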
# [2] = target: T2, GSK3A (GSK3 alpha) (Homo sapiens, UniProt P49840)
# T2 construct: purchased Invitrogen (SelectScreen platform)
# In short: as §1
# [3] = target: T3, STK24 (MST3) (Homo sapiens, UniProt Q9Y6E0)
# T3 construct: purchased Invitrogen (SelectScreen platform)
# In short: as §1
# [4] = target: T4, IRAK4 (Homo sapiens, UniProt Q9NWZ3)
# T4 construct: purchased Invitrogen, Inc. (SelectScreen platform)
# In short: as §1
# [5] = target: T5, KDR (VEGFR2) (Homo sapiens, UniProt P35968)
# T5 construct: purchased Invitrogen, Inc. (SelectScreen platform)
# In short: as §1
# [6] = target: T6, PDGFRA D842V (Homo sapiens, UniProt P16234, D842V)
# T6 construct: purchased Invitrogen (SelectScreen platform)
# T6 sequence (P16234 24-1089 D842V): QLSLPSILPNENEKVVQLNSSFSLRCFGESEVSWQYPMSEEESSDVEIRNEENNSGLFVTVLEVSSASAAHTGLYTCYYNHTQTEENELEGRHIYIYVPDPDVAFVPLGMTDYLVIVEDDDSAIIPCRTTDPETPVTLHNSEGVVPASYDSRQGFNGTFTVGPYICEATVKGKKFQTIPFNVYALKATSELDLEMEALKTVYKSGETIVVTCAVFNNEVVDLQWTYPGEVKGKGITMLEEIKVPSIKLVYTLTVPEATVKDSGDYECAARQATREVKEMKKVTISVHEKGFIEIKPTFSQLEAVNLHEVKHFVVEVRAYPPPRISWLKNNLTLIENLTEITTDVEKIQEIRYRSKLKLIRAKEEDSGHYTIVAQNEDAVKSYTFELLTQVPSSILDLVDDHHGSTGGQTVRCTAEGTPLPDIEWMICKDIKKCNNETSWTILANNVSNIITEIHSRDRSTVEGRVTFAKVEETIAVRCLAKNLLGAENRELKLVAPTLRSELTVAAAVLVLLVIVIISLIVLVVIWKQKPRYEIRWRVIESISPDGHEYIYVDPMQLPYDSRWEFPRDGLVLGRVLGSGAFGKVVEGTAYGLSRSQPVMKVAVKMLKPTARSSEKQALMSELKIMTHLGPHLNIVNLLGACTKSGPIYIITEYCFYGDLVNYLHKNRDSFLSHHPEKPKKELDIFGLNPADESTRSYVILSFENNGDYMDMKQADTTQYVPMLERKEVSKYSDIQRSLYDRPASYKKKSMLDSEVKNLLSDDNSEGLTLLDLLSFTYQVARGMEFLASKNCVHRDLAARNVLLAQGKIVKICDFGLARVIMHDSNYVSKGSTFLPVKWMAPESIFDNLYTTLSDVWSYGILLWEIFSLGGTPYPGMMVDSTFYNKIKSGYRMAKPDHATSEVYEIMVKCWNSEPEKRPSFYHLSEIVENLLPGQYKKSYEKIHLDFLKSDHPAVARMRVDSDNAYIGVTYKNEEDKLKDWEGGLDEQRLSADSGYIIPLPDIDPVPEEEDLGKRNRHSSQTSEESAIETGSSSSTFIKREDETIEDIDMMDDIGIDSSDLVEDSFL
# In short: as §1
# [7] = target: T7, MST4 (Homo sapiens, UniProt Q9P289)
# T7 construct: purchased Invitrogen (SelectScreen platform)
# In short: as §1
# [8] = target: T8, KIT T670I (Homo sapiens, UniProt P10721, T670I)
# T8 construct: purchased Invitrogen (SelectScreen platform)
# In short: as §1
# [9] = target: T9, INSR (Homo sapiens, UniProt P06213)
# T9 construct: purchased Invitrogen (SelectScreen platform)
# In short: as §1
# [10] = target: T10, BTK (Homo sapiens, UniProt Q06187)
# T10 construct: purchased Invitrogen (SelectScreen)
# T10 sequence (Q06187 whole entry): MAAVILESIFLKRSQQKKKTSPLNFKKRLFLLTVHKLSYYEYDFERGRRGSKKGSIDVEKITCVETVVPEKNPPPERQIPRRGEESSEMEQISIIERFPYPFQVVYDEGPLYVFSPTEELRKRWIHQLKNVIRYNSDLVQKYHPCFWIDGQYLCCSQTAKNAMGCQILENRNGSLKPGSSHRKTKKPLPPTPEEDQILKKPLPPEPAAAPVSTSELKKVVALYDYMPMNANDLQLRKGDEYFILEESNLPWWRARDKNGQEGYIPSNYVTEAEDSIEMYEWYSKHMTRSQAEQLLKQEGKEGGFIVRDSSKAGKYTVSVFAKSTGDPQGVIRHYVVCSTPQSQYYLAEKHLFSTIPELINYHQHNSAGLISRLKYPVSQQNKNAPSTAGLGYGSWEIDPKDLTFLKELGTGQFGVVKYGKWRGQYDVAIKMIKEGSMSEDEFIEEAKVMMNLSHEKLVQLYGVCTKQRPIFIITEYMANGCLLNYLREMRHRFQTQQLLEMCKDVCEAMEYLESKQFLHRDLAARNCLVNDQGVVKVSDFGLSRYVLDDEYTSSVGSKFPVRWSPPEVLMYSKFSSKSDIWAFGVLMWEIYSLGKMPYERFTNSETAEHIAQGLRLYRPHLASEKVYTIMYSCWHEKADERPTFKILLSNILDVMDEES
# In short: as §1
# [11] = target: T11, RPS6KA6 (RSK4) (Homo sapiens, UniProt Q9UK32)
# T11 construct: purchased Invitrogen, Inc. (SelectScreen platform)
# In short: as §1
# [12] = target: T12, PHKG2 (Homo sapiens, UniProt P15735)
# T12 construct: purchased Invitrogen, Inc. (SelectScreen platform)
# T12 sequence (P15735 whole entry): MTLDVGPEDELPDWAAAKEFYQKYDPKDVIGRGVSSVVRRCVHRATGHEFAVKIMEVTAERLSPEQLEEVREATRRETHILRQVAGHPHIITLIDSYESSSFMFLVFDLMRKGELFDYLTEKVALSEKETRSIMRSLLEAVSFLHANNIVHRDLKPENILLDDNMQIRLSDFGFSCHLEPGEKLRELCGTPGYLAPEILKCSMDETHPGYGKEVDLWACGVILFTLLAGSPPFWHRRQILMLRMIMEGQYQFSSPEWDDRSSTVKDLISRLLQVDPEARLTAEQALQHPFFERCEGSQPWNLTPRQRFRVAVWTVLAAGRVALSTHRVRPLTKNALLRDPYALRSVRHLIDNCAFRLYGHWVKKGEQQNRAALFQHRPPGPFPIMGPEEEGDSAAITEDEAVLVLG
# In short: as §1
# [13] = target: T13, STK4 (MST1) (Homo sapiens, UniProt Q13043)
# T13 construct: purchased Invitrogen (SelectScreen platform)
# In short: as §1
# [14] = target: T14, ERBB4 (HER4) (Homo sapiens, UniProt Q15303)
# T14 construct: purchased Invitrogen (SelectScreen service)
# In short: as §1
# [15] = target: T15, MAPK13 (p38 delta) (Homo sapiens, UniProt O15264)
# T15 construct: purchased Invitrogen, Inc. (SelectScreen service)
# T15 sequence (O15264 whole entry): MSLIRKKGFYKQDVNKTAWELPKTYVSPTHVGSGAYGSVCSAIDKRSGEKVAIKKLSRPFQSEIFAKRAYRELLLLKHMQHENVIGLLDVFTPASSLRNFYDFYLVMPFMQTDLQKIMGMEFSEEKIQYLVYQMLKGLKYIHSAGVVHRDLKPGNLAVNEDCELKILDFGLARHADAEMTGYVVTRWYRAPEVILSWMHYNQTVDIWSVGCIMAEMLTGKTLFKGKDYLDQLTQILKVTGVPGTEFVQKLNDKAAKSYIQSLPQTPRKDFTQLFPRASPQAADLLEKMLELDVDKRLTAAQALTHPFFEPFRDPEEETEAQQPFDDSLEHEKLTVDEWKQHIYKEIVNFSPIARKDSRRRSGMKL
# In short: as §1
# [16] = target: T16, AURKC (Aurora C) (Homo sapiens, UniProt Q9UQB9)
# T16 construct: purchased Invitrogen, Inc. (SelectScreen service)
# In short: as §1
# [17] = target: T17, FGFR2 (Homo sapiens, UniProt P21802)
# T17 construct: purchased Invitrogen (SelectScreen platform)
# T17 sequence (P21802 22-821): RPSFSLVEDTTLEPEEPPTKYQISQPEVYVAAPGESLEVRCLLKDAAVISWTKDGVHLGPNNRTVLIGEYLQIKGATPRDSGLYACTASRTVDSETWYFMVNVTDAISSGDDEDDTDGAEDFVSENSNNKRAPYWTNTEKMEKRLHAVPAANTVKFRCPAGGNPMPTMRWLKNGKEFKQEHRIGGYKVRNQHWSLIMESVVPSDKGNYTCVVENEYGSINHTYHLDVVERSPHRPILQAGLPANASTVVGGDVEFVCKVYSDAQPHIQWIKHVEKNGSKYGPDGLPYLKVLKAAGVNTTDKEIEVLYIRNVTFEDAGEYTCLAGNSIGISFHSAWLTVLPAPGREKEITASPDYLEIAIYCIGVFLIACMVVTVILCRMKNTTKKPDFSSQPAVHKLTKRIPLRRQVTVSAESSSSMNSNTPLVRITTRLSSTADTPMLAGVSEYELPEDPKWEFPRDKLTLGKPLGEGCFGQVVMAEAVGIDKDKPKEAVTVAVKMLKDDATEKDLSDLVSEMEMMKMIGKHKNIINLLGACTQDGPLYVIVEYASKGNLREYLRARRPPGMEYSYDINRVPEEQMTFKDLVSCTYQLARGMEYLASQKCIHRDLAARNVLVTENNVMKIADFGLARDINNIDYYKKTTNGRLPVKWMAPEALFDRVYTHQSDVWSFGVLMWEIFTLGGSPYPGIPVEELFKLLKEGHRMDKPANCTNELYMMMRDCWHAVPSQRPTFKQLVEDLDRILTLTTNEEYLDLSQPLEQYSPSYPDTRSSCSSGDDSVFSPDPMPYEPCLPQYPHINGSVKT
# In short: as §1
# [18] = target: T18, MAP4K4 (HGK, ZC1) (Homo sapiens, UniProt O95819)
# T18 construct: purchased Invitrogen (SelectScreen platform)
# In short: as §1
# [19] = target: T19, PRKCN (PKD3, PRKD3) (Homo sapiens, UniProt O94806)
# T19 construct: purchased Invitrogen, Inc. (SelectScreen platform)
# In short: as §1
# [20] = target: T20, CAMK4 (CaMKIV) (Homo sapiens, UniProt Q16566)
# T20 construct: purchased Invitrogen, Inc. (SelectScreen platform)
# In short: as §1
# [21] = target: T21, PDGFRA (PDGFR alpha) (Homo sapiens, UniProt P16234)
# T21 construct: purchased Invitrogen (SelectScreen platform)
# T21 sequence (P16234 24-1089): as the sequence (P16234 24-1089 D842V) above, with V819D counted along it
# In short: as §1
# [22] = target: T22, CAMK2B (CaMKII beta) (Homo sapiens, UniProt Q13554)
# T22 construct: purchased Invitrogen, Inc. (SelectScreen platform)
# In short: as §1
# [23] = target: T23, FLT4 (VEGFR3) (Homo sapiens, UniProt P35916)
# T23 construct: purchased Invitrogen, Inc. (SelectScreen platform)
# In short: as §1
# [24] = target: T24, ITK (Homo sapiens, UniProt Q08881)
# T24 construct: purchased Invitrogen (SelectScreen)
# T24 sequence (Q08881 whole entry): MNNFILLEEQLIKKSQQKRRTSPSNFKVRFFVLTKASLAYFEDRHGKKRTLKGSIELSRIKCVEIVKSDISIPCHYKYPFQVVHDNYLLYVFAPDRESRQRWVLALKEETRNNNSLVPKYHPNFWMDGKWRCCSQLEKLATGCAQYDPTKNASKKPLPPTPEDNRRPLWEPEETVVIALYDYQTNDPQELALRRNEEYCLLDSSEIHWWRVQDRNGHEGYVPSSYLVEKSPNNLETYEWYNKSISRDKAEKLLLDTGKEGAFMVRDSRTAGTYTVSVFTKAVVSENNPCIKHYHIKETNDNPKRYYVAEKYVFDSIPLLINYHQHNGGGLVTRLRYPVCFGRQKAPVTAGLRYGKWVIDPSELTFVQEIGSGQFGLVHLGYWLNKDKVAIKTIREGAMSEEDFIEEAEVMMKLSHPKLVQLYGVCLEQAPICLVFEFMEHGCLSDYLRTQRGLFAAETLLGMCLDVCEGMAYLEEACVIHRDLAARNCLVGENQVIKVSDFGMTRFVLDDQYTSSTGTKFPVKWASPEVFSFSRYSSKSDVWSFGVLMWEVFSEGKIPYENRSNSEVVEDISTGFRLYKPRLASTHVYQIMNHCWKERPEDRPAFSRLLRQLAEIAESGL
# In short: as §1
# [25] = target: T25, PRKD1 (PKC mu, PKD1) (Homo sapiens, UniProt Q15139)
# T25 construct: purchased Invitrogen, Inc. (SelectScreen platform)
# T25 sequence (Q15139 whole entry): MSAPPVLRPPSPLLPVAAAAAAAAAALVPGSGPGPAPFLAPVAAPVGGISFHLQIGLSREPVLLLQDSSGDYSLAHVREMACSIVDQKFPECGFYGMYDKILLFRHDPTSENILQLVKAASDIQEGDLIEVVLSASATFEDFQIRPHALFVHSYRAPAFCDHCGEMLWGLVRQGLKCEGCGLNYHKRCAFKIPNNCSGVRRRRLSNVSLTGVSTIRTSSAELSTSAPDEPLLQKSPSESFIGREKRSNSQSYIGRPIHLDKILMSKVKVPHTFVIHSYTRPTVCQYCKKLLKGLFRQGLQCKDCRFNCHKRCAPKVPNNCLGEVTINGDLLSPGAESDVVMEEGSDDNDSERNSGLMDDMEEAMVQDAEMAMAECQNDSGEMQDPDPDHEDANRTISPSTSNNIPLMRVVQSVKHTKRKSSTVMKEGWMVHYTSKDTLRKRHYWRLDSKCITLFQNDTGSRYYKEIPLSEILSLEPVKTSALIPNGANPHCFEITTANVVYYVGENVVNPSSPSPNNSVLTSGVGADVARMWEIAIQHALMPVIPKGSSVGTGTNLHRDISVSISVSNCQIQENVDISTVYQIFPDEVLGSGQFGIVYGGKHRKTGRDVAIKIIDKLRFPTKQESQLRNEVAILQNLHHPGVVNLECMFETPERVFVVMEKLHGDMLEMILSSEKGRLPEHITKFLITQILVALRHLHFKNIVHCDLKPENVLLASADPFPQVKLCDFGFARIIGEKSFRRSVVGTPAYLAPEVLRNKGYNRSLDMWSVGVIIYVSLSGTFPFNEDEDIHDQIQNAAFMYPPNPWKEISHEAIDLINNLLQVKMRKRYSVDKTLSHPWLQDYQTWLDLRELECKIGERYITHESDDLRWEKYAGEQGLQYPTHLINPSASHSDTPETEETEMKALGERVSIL
# In short: as §1
# [26] = target: T26, CLK2 (Homo sapiens, UniProt P49760)
# T26 construct: purchased Invitrogen (SelectScreen platform)
# In short: as §1
# [27] = target: T27, JAK2 JH1 JH2 (Homo sapiens, UniProt O60674)
# T27 construct: JAK2 JH1 JH2; purchased Invitrogen (SelectScreen platform)
# In short: as §1
SMILES,EC50 [1],EC50 [2],EC50 [3],EC50 [4],EC50 [5],EC50 [6],EC50 [7],EC50 [8],EC50 [9],EC50 [10],EC50 [11],EC50 [12],EC50 [13],EC50 [14],EC50 [15],EC50 [16],EC50 [17],EC50 [18],EC50 [19],EC50 [20],other results
CN(C)CCCNc1ccc2ncn3c4ccc5[nH]ncc5c4c(=O)c1c23 [Compound (IV)],587 nM,3620 nM,1040 nM,3320 nM,830 nM,370 nM,> 5000 nM,> 5000 nM,2400 nM,1440 nM,655 nM,3720 nM,2170 nM,> 5000 nM,> 5000 nM,> 5000 nM,2860 nM,> 5000 nM,302 nM,> 5000 nM,EC50 [21]: 562 nM; EC50 [22]: > 5000 nM; EC50 [23]: 1490 nM; EC50 [24]: 637 nM; EC50 [25]: 494 nM; EC50 [26]: 55 nM; EC50 [27]: > 5000 nM
"CCN(CC)CCNc1ccc2ncn3c4ccc(O)cc4c(=O)c1c23 [Symadex, 5-(2-(diethylamino)ethylamino)-8-hydroxy-6H-imidazo[4,5,1-de]acridin-6-one, reference compound]",1120 nM,> 5000 nM,733 nM,847 nM,1600 nM,1060 nM,1580 nM,> 5000 nM,> 5000 nM,3020 nM,182 nM,> 5000 nM,> 5000 nM,> 5000 nM,> 5000 nM,> 5000 nM,4500 nM,3130 nM,221 nM,> 5000 nM,EC50 [21]: 1230 nM; EC50 [22]: > 5000 nM; EC50 [23]: 3960 nM; EC50 [24]: > 5000 nM; EC50 [25]: 217 nM; EC50 [26]: 315 nM; EC50 [27]: > 5000 nM
